Like-named read-outs stand apart in the source and are kept apart here.
What was measured:
SIK1 = SIK1 (Homo sapiens (Human), UniProt P57059); assay: radiometric protein kinase assay (33PanQinase Activity Assay, ProQinase Free Choice Kinase Assay); type: biochemical; conditions: read-out: SIK1 IC50 rank
SIK2 = SIK2 (Homo sapiens (Human), UniProt Q9H0K1); assay: as above; type: biochemical; conditions: ATP 1.0 uM, read-out: SIK2 IC50 rank
SIK3 = SIK3 (Homo sapiens (Human), UniProt Q9Y2K2); assay: as above; type: biochemical; conditions: read-out: SIK3 IC50 rank
SIK3, sequence (Q9Y2K2 whole entry): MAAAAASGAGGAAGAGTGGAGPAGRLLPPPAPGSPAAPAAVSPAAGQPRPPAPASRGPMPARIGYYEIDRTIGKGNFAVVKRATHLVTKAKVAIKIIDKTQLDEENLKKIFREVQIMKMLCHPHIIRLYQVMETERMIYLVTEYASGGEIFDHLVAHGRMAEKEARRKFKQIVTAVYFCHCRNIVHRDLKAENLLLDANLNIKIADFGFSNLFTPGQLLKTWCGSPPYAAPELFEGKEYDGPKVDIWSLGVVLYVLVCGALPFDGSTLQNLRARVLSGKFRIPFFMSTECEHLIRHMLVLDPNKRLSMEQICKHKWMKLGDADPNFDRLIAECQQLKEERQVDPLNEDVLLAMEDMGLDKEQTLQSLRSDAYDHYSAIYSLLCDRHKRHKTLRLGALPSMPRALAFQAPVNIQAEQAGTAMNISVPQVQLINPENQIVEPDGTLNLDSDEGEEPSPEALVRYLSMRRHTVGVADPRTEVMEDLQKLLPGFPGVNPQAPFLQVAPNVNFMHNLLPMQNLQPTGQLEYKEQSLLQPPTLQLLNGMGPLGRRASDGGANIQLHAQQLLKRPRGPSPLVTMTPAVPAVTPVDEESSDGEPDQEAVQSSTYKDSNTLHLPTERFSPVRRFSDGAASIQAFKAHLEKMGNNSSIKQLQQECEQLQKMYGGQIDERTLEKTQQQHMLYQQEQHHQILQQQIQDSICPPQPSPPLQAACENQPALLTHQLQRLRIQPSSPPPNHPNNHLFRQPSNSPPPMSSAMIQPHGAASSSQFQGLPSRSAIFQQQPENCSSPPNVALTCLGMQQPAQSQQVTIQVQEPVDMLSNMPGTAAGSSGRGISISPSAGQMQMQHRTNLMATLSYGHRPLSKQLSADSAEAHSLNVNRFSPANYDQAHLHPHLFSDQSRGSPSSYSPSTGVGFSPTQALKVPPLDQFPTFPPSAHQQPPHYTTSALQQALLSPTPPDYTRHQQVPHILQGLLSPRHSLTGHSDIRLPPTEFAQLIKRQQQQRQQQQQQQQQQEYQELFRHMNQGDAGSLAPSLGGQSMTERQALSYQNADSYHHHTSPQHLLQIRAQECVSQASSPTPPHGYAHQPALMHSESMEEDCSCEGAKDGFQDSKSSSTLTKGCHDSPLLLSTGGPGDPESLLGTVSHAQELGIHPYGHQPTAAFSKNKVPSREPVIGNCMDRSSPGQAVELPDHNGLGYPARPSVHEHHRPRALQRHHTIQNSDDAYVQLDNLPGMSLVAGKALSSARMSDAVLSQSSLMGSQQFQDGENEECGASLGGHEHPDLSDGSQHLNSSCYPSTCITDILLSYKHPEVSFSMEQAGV

ABL1 wt = ABL1 wt (Homo sapiens (Human), UniProt P00519); assay: as above; type: biochemical; conditions: indicative IC50, Table 4; ATP 0.3 uM; read-out: ABL1 IC50 rank
ABL1 wt, sequence (P00519 whole entry): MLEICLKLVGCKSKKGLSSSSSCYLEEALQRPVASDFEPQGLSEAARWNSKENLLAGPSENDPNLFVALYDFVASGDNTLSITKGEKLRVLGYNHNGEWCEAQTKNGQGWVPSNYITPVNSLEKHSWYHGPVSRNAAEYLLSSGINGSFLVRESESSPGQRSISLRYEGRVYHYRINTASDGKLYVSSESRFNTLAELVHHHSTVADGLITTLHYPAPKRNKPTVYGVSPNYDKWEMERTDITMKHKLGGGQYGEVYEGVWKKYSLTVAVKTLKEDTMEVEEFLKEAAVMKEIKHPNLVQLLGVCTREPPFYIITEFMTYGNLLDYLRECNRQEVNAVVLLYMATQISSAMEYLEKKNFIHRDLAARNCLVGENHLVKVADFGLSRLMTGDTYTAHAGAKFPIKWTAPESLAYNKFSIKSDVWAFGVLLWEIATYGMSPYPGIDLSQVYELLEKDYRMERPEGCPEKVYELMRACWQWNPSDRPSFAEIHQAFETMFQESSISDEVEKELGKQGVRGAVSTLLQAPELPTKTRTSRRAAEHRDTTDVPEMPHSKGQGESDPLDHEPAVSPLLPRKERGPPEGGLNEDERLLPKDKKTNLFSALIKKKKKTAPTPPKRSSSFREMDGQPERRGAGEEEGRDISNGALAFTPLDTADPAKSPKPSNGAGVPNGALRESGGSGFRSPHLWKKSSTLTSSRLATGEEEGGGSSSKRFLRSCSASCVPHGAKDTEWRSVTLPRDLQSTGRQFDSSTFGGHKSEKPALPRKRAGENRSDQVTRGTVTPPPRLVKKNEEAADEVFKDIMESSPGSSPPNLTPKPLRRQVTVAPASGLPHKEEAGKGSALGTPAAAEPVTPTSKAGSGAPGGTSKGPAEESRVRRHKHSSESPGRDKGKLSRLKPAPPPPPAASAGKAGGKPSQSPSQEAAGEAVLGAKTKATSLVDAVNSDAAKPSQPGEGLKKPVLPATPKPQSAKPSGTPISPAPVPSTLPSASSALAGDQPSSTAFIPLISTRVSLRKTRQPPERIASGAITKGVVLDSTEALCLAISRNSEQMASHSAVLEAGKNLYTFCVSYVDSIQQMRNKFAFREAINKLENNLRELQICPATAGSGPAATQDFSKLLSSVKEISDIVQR

SRC (GST-HIS-tag) = SRC (GST-HIS-tag) (Homo sapiens (Human), UniProt P12931); assay: as above; type: biochemical; conditions: indicative IC50, Table 4; ATP 0.3 uM; read-out: SRC IC50 rank
SRC (GST-HIS-tag), sequence (P12931 whole entry, looked up): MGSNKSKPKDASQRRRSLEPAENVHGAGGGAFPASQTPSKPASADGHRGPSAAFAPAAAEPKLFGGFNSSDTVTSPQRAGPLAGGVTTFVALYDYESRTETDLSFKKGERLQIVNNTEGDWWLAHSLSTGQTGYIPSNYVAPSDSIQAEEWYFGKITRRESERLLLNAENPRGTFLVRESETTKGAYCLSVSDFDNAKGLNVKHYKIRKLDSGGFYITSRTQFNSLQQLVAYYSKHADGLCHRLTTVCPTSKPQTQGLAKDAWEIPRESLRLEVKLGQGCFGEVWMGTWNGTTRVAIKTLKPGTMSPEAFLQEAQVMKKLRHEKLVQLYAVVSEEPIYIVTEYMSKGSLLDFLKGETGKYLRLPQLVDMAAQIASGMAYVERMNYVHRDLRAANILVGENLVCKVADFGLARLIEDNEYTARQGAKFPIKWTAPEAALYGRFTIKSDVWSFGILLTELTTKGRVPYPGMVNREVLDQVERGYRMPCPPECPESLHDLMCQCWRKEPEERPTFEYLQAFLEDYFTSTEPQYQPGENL

PANC-1-luc cells = assay: luciferase-based T cell-mediated killing assay of siRNA-transfected PANC-1-luc cells; set-up: species or system human; conditions: absence of T cells (viability setting)
From the text: FIG. 2: Luciferase-based cytotoxicity assay for the assessment of T cell-mediated killing of siRNA transfected PANC-1-luc cells.
The inventors describe herein their surprising finding that SIK3 is a gene involved in tumour cell resistance against a cell-mediated immune response. Such role of SIK3 was first identified by the inventors using a high-throughput screening approach—to identify novel genes involved in mechanisms of tumour resistance towards T cell attack—as adapted and expanded from the screening approach developed and described by Khandelwal et al, 2015 (EMBO Mol Med 7:450). Briefly, using a siRNA library, 2514 genes were individually knocked-down in HLA-A2.1+ luciferase-expressing PANC1 cells (PANC1-luc), a pancreatic adenocarcinoma (PDAC) tumour cell line. Each gene's siRNA-transfected PANC1-luc tumour cells were then co-cultured with magnetically purified CD8+ T cells from an HLA-A2.1+ PDAC-derived tumour infiltrating lymphocyte culture (TIL #1). The impact of siRNA-mediated gene knockdown on TIL-mediated killing of tumour cells was measured using a luciferase-based cytotoxicity assay (cytotoxicity setting). In order to exclude those genes whose knockdown intrinsically affects cell viability, complementary screening was performed without the addition of TIL #1 (viability setting). False positive genes were further excluded using a luciferase-independent viability screen.
The present invention is based on the dramatic impact that inhibition of SIK3 of tumour cells determines a reduction of tumour cell survival after co-culture with a cell-mediated immune response. […]
The PANC1-luc cell line was constructed as follows: PANC-1 cells were acquired from the American Type Cell Culture (ATCC). […] After lysis, luciferase assay buffer was added and immediately the luciferase intensity was measured by using the TECAN-Spark microplate reader.

[1] = indicative IC50, Table 2A, ATP 3.0 uM
[2] = indicative IC50, Table 2A, ATP 1.0 uM
[3] = indicative IC50, Table 4, ATP 3.0 uM
[4] = indicative IC50, Table 4, ATP 1.0 uM

SIK2, sequence (Q9H0K1 whole entry): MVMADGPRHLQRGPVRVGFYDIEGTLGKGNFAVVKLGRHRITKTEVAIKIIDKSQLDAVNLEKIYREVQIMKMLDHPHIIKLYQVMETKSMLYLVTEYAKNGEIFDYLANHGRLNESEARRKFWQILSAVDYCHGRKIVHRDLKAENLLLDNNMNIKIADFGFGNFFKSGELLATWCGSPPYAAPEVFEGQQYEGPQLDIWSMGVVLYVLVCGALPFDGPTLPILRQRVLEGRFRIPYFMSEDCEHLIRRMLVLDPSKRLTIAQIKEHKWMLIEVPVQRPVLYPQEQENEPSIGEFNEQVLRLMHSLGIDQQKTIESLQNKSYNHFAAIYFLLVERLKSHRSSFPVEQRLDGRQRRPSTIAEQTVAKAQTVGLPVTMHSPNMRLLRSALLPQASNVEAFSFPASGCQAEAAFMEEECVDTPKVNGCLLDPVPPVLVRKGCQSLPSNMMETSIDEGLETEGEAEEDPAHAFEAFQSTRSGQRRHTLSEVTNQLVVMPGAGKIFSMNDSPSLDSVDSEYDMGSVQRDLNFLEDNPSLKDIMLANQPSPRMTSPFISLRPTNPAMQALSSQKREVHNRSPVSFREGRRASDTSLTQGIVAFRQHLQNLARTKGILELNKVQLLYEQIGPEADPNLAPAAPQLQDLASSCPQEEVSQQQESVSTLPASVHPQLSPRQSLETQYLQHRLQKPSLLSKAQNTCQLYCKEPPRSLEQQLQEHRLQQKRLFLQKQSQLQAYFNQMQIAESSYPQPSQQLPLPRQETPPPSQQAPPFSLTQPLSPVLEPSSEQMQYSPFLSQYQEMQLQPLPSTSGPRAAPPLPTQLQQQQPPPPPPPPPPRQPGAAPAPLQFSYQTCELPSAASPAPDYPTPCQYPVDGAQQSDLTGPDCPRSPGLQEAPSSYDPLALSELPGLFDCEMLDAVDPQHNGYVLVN
SIK1, sequence (P57059 whole entry): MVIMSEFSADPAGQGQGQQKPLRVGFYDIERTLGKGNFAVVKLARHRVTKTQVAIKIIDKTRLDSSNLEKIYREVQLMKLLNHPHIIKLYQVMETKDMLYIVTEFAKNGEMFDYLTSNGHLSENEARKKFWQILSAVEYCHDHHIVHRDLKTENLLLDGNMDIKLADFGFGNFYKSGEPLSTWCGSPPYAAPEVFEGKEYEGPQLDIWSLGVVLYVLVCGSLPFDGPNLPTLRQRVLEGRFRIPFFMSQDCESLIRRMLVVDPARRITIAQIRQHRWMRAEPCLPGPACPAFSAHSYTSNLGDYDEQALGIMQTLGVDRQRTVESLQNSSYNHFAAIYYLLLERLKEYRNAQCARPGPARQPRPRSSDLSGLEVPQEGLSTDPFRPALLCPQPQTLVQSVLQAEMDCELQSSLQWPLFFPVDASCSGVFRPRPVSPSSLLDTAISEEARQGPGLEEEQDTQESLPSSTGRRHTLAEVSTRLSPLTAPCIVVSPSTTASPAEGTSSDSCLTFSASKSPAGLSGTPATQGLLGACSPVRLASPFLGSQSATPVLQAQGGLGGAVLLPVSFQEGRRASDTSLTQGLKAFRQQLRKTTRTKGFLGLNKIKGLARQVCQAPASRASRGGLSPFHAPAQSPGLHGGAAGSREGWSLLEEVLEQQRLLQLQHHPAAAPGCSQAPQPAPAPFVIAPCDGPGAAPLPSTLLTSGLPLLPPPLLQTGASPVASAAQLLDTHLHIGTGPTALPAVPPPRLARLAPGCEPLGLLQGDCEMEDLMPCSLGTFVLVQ

IC50 (SIK1; [1]) [µM]	IC50 (SIK2; indicative IC50, Table 2A) [µM]	IC50 (SIK3; [2]) [µM]	IC50 (SIK1; [3]) [µM]	IC50 (SIK2; indicative IC50, Table 4) [µM]	IC50 (SIK3; [4]) [µM]	IC50 (ABL1 wt) [µM]	IC50 (SRC (GST-HIS-tag)) [µM]	Molecule	other results
< 0.1	< 0.1	< 0.1	–	–	–	–	–	Cc1nc(Nc2ncc(C(=O)Nc3c(F)cccc3Cl)s2)cc(N2CCN(CCO)CC2)n1 [Compound A1, N-(2-chloro-6-fluorophenyl)-2-((6-(4-(2-hydroxyethyl)piperazin-1-yl)-2-methylpyrimidin-4-yl)amino)thiazole-5-carboxamide]	–
< 0.1	< 0.1	< 0.1	–	–	–	–	–	Cc1nc(Nc2ncc(C(=O)Nc3c(F)cccc3F)s2)cc(N2CCN(CCO)CC2)n1 [Compound A2, N-(2,6-difluorophenyl)-2-((6-{4-(2-hydroxyethyl)piperazin-1-yl)-2-methylpyrimidin-4-yl)amino)thiazole-5-carboxamide]	–
< 0.1	< 0.1	< 0.1	–	–	–	–	–	Cc1nc(Nc2ncc(C(=O)Nc3c(F)cccc3Br)s2)cc(N2CCN(CCO)CC2)n1 [Compound A3, N-(2-bromo-6-fluorophenyl)-2-((6-(4-(2-hydroxyethyl)piperazin-1-yl)-2-methylpyrimidin-4-yl)amino)thiazole-5-carboxamide]	–
> 1	> 0.1	> 1	–	–	–	–	–	C#Cc1cccc(NC(=O)c2cnc(Nc3cc(N4CCN(CCO)CC4)nc(C)n3)s2)c1 [Compound A4, N-(3-ethynylphenyl)-2-((6-(4-(2-hydroxyethyl)piperazin-1-yl)-2-methylpyrimidin-4-yl)amino)thiazole-5-carboxamide]	–
> 0.1	> 0.1	> 1	–	–	–	–	–	Cc1nc(Nc2ncc(C(=O)Nc3ccc(F)cc3)s2)cc(N2CCN(CCO)CC2)n1 [Compound A5, N-(4-fluorophenyl)-2-((6-(4-(2-hydroxyethyl)piperazin-1-yl)-2-methylpyrimidin-4-yl)amino)thiazole-5-carboxamide]	–
< 0.1	> 0.1	> 0.5	–	–	–	–	–	Cc1nc(Nc2ncc(C(=O)Nc3ccc(Br)cc3F)s2)cc(N2CCN(CCO)CC2)n1 [Compound A7, N-(4-bromo-6-fluorophenyl)-2-((6-(4-(2-hydroxyethyl)piperazin-1-yl)-2-methylpyrimidin-4-yl)amino)thiazole-5-carboxamide]	–
< 0.1	< 0.1	< 0.1	–	–	–	–	–	Cc1nc(Nc2ncc(C(=O)Nc3ccccc3C)s2)cc(N2CCN(CCO)CC2)n1 [Compound A9, 2-((6-(4-(2-hydroxyethyl)piperazin-1-yl)-2-methylpyrimidin-4-yl)amino)-N-(o-tolyl)thiazole-5-carboxamide]	–
< 0.1	< 0.1	> 0.1	–	–	–	–	–	Cc1nc(Nc2ncc(C(=O)Nc3ccccc3Cl)s2)cc(N2CCN(CCO)CC2)n1 [Compound A10, N-(2-chlorophenyl)-2-((6-(4-(2-hydroxyethyl)piperazin-1-yl)-2-methylpyrimidin-4-yl)amino)thiazole-5-carboxamide]	–
< 0.1	< 0.1	< 0.1	–	–	–	–	–	Cc1nc(Nc2ncc(C(=O)Nc3c(C)cccc3C)s2)cc(N2CCN(CCO)CC2)n1 [Compound A12, N-(2,6-dimethylphenyl)-2-((6-(4-(2-hydroxyethyl)piperazin-1-yl)-2-methylpyrimidin-4-yl)amino)thiazole-5-carboxamide]	–
< 0.1	< 0.1	< 0.1	–	–	–	–	–	Cc1nc(Nc2ncc(C(=O)Nc3c(Cl)cccc3Cl)s2)cc(N2CCN(CCO)CC2)n1 [Compound A13, N-(2,6-dichlorophenyl)-2-((6-(4-(2-hydroxyethyl)piperazin-1-yl)-2-methylpyrimidin-4-yl)amino)thiazole-5-carboxamide]	–
–	–	–	< 0.1	< 0.1	< 0.1	< 0.1	< 0.1	Cc1nc(Nc2ncc(C(=O)Nc3c(Cl)cccc3Br)s2)cc(N2CCN(CCO)CC2)n1 [Compound B1, N-(2-bromo-6-chlorophenyl)-2-((6-(4-(2-hydroxyethyl)piperazin-1-yl)-2-methylpyrimidin-4-yl)amino)thiazole-5-carboxamide]	–
–	–	–	< 0.1	< 0.1	> 0.1	< 0.1	< 0.1	Cc1nc(Nc2ncc(C(=O)Nc3c(Br)cccc3Br)s2)cc(N2CCN(CCO)CC2)n1 [Compound B2, N-(2,6-dibromophenyl)-2-((6-(4-(2-hydroxyethyl)piperazin-1-yl)-2-methylpyrimidin-4-yl)amino)thiazole-5-carboxamide]	–
–	–	–	> 0.1	> 0.1	> 1	< 0.1	< 0.1	COc1c(F)cccc1NC(=O)c1cnc(Nc2cc(N3CCN(CCO)CC3)nc(C)n2)s1 [Compound B4, N-(3-fluoro-2-methoxyphenyl)-2-((6-(4-(2-hydroxyethyl)piperazin-1-yl)-2-methylpyrimidin-4-yl)amino)thiazole-5-carboxamide]	–
–	–	–	< 0.1	< 0.1	< 0.1	< 0.1	< 0.1	Cc1nc(Nc2ncc(C(=O)Nc3c(C)cccc3Cl)s2)cc(N2CCN(C)CC2)n1 [Compound B5, N-(2-chloro-6-methylphenyl)-2-((2-methyl-6-(4-methylpiperazin-1-yl)pyrimidin-4-yl)amino)thiazole-5-carboxamide]	–
–	–	–	< 0.1	< 0.1	< 0.1	< 0.1	< 0.1	CC(=O)N1CCN(c2cc(Nc3ncc(C(=O)Nc4c(C)cccc4Cl)s3)nc(C)n2)CC1 [Compound B6, 2-((6-(4-acetylpiperazin-1-yl)-2-methylpyrimidin-4-yl)amino)-N-(2-chloro-6-methylphenyl)thiazole-5-carboxamide]	–
–	–	–	< 0.1	< 0.1	< 0.1	< 0.1	< 0.1	Cc1nc(NCCO)cc(Nc2ncc(C(=O)Nc3c(C)cccc3Cl)s2)n1 [Compound B7, N-(2-chloro-6-methylphenyl)-2-((6-((2-hydroxyethyl)amino)-2-methylpyrimidin-4-yl)amino)thiazole-5-carboxamide]	–
–	–	–	–	> 0.5	–	–	–	Cc1nc(Nc2ncc(C(=O)Nc3ccc(F)c(Cl)c3)s2)cc(N2CCN(CCO)CC2)n1 [Compound B9]	IC50 (SIK1): > 5 µM; IC50 (SIK3): > 5 µM
–	–	–	–	–	–	–	–	s1: SIK3 siRNA, sequence GCGCCAGGCUUUAUCUUAU, Dharmacon D-004779-01 (listed as RNA, chemistry not given here)	cell viability of tumour cells (PANC-1-luc cells): slight reduction of cell viability
–	–	–	–	–	–	–	–	s2: SIK3 siRNA, sequence GAACAGCGACGAUGCUUAU, Dharmacon D-004779-05 (listed as RNA, chemistry not given here)	cell viability of tumour cells (PANC-1-luc cells): slight reduction of cell viability
–	–	–	–	–	–	–	–	s3: SIK3 siRNA, sequence GCACUAACCUGCUUGGGUA, Dharmacon D-004779-06 (listed as RNA, chemistry not given here)	cell viability of tumour cells (PANC-1-luc cells): slight reduction of cell viability

Source: patent US20250340886A1, “INTRACELLULAR KINASE ASSOCIATED WITH RESISTANCE AGAINST ANTI-TUMOUR IMMUNE RESPONSES, AND USES THEREOF” (iOmx Therapeutics AG, priority 2017, published 2025)
